Data on 31 compounds can be found in ChEMBL document CHEMBL1146289, “1,5-Biaryl pyrrole derivatives as EP1 receptor antagonists: Structure-activity relationships of 4- and 5-substituted benzoic acid derivatives” (Bioorg Med Chem Lett, 2007).

Series [1] addresses T1, Prostaglandin E2 receptor EP1 subtype (Homo sapiens, UniProt P34995).
T1 sequence (P34995 whole entry): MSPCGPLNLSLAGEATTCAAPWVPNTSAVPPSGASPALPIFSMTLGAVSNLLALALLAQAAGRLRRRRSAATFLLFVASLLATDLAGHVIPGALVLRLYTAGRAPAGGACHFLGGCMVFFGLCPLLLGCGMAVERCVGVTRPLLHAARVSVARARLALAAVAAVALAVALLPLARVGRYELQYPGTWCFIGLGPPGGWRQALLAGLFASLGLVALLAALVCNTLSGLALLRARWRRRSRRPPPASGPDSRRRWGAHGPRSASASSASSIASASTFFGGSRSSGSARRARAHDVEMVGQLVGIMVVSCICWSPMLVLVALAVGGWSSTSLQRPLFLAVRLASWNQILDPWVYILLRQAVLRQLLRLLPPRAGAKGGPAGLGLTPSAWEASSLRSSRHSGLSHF
As to the kind of experiment: Displacement of [3H]PGE2 from human recombinant EP1 receptor expressed in CHO cell membranes.

For series [2], the system named is Rattus norvegicus. Description: AUC (0-t) in rat at 3 mg/kg, po. Format: ADME, organism-based, Plasma. More on the design: dose 3 mg/kg, route oral. The note with it: in vivo.
A short description of series [3]: Tmax in rat at 3 mg/kg, po. Format: ADME, organism-based. On the set-up: dose 3 mg/kg, route oral. The settings on record: in vivo.
A short description of series [4]: Cmax in rat at 3 mg/kg, po. The class given is ADME, organism-based. More on the design: dose 3 mg/kg, route oral. The settings on record: in vivo.
Series [5] relates to Rattus norvegicus. Description: Reversal of hypersensitivity in rat FCA model of inflammatory pain at 5 mg/kg, po. Format: functional.
For series [6], the species on record is Rattus norvegicus. As to the kind of experiment: Reversal of hypersensitivity in rat FCA model of inflammatory pain. The class given is functional.
For the next series, the target named is T2, Cytochrome P450 1A2 (Homo sapiens, UniProt P05177).
T2 sequence (P05177 whole entry): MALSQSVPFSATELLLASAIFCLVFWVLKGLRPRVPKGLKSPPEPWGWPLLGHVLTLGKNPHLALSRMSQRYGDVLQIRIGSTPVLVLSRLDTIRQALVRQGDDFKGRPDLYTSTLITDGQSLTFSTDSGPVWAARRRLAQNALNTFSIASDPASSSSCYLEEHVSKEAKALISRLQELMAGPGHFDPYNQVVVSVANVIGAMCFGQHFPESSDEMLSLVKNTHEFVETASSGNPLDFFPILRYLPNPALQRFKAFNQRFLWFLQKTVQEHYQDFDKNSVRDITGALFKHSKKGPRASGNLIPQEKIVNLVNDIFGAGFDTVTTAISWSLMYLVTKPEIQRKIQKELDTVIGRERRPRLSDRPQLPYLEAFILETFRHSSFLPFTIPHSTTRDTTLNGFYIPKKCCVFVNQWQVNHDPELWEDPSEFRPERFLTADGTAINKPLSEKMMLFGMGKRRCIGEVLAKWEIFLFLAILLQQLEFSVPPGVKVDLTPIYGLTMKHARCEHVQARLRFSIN
Description: Inhibition of CYP1A2. The class given is ADME.

For the next series, the target named is Cytochrome P450 2C9 (Homo sapiens, UniProt P11712). Description: Inhibition of CYP2C9. Format: ADME.
Chain of Cytochrome P450 2C9 (P11712 whole entry): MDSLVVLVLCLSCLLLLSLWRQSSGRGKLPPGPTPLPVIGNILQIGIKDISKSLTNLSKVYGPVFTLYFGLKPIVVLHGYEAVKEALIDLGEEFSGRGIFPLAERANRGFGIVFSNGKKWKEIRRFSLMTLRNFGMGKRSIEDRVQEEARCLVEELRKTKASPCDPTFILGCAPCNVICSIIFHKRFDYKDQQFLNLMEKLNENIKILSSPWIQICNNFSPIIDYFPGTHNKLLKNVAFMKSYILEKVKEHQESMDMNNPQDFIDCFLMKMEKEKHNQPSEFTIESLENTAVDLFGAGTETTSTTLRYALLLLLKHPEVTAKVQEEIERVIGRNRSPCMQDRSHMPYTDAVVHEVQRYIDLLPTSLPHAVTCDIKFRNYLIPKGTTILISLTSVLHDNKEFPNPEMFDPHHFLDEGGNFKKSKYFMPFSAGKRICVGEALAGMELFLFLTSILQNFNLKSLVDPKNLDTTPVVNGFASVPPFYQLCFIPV
In the next series the target is Cytochrome P450 2C19 (Homo sapiens, UniProt P33261). As to the kind of experiment: Inhibition of CYP2C19. The class given is ADME.
Chain of Cytochrome P450 2C19 (P33261 whole entry): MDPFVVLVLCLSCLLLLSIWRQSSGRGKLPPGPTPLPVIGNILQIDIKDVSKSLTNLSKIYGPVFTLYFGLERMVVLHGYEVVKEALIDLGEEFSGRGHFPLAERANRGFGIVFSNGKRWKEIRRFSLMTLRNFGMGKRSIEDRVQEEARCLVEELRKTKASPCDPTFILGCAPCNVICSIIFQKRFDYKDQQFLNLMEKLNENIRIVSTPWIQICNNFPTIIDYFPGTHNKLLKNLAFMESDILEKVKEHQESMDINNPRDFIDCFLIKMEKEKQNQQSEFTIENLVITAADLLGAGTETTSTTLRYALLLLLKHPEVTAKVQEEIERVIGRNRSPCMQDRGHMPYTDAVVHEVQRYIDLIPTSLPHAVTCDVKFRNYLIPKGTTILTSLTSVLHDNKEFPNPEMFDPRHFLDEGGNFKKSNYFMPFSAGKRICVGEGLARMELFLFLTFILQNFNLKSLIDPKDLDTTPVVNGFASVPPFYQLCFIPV
The target in series [7] is Prostaglandin E2 receptor EP4 subtype (Homo sapiens, UniProt P35408). As to the kind of experiment: Inhibition of EP4 receptor.
Chain of Prostaglandin E2 receptor EP4 subtype (P35408 whole entry): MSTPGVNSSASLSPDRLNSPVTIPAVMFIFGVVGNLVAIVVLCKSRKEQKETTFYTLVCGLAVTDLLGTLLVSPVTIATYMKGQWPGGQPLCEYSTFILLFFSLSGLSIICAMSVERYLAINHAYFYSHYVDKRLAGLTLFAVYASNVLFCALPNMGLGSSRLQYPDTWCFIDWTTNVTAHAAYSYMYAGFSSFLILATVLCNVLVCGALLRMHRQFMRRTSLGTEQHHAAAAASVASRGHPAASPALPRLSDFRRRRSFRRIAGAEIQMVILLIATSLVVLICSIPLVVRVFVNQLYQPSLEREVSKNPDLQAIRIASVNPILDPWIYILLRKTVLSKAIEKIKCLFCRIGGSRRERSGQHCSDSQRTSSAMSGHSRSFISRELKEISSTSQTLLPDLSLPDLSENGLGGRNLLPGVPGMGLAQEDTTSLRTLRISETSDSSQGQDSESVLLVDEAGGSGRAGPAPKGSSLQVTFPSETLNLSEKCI
The target in another series is Cytochrome P450 2D6 (Homo sapiens, UniProt P10635). As to the kind of experiment: Inhibition of CYP2D6. The class given is ADME.
Chain of Cytochrome P450 2D6 (P10635 whole entry): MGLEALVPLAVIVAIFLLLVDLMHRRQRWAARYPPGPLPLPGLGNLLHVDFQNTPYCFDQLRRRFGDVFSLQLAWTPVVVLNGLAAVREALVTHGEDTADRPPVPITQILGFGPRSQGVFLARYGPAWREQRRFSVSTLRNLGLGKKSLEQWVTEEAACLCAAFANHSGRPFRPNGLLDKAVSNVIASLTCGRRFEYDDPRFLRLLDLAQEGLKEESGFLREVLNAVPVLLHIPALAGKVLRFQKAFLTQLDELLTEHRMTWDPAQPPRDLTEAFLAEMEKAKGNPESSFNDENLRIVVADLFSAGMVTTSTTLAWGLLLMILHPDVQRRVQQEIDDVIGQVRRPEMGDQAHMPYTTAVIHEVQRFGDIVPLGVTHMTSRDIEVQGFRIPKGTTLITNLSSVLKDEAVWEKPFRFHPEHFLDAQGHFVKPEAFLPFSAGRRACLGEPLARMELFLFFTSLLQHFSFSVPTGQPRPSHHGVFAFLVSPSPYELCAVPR
The next series concerns the target Cytochrome P450 3A4 (Homo sapiens, UniProt P08684). Description: Inhibition of CYP3A4. The class given is ADME.
Series [8] has as its target T1, Prostaglandin E2 receptor EP1 subtype. Description: Inhibition of EP1 receptor expressed in CHO cells assessed as calcium mobilization by FLIPR assay. Format: functional, cell-based.
In series [9] the target is T3, Prostaglandin E2 receptor EP3 subtype (Homo sapiens, UniProt P43115).
T3 sequence (P43115 whole entry): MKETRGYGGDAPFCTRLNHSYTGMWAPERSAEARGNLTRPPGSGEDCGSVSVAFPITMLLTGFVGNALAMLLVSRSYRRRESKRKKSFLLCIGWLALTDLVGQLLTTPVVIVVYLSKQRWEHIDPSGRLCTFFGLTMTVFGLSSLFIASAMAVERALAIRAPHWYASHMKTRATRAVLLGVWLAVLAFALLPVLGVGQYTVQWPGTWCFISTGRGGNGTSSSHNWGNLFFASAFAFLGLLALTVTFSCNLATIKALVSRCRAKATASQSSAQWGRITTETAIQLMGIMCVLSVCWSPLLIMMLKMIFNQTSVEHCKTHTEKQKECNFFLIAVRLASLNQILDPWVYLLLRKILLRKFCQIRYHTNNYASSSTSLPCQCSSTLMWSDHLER
Description: Inhibition of EP3 receptor expressed in CHO cells assessed as calcium mobilization by FLIPR assay. The class given is functional, cell-based.

The target in the next series is T4, Thromboxane A2 receptor (Homo sapiens, UniProt P21731).
T4 sequence (P21731 whole entry): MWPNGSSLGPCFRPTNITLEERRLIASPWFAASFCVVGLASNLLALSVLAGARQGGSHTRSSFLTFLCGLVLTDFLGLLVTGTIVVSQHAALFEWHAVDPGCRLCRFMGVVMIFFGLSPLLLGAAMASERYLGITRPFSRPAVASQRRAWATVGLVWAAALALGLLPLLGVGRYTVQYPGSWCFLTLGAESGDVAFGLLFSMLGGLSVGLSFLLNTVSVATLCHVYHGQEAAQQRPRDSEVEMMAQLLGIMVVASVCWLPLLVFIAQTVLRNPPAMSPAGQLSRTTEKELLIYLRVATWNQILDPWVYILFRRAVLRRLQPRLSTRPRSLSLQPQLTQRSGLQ
As to the kind of experiment: Inhibition of TP receptor.

Series [10] concerns the target T5, Thromboxane A2 receptor (Homo sapiens) (UniProt P21731).
T5 sequence (whole entry): T4 sequence (P21731 whole entry)

Chain of Cytochrome P450 3A4 (P08684 whole entry): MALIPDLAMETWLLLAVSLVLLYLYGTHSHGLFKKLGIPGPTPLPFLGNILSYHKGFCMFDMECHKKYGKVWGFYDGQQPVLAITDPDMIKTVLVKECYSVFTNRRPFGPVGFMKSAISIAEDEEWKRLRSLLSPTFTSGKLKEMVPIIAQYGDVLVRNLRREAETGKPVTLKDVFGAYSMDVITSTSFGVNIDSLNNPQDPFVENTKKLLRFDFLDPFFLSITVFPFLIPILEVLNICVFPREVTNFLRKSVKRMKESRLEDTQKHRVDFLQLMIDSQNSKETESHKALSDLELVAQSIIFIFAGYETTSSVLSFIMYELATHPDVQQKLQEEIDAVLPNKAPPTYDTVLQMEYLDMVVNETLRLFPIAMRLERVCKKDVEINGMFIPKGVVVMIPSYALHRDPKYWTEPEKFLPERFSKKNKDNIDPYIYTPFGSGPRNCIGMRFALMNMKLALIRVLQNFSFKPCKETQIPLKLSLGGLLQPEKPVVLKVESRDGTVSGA

Take `CC(=O)Nc1cc(C(=O)O)cc(-n2c(C)ccc2-c2cc(Cl)ccc2OCc2ccccc2)c1`: the IC50 in [1] was 2 nM. Also, in the series on Rattus norvegicus [2], the AUC was 8 kg·min/L. In [3], the Tmax was found to be 30 min. For the same compound, the concentration in series [4] peaked (Cmax) at 580 nM.

In the case of `Cc1ccc(-c2cc(Cl)ccc2OCc2ccc(F)cc2F)n1-c1cc(C(=O)O)cc(C(F)(F)F)c1`, the IC50 in series [1] was 10 nM.

As to `Cc1ccc(-c2cc(Cl)ccc2OCc2ccc(F)cc2F)n1-c1cc(Br)cc(C(=O)O)c1`, in series [1], the IC50 is 5.01 nM.

Turning to `Cc1ccc(-c2cc(Br)ccc2OCc2ccc(F)cc2F)n1-c1cc(C(=O)O)cc(N2CCCCC2=O)c1`, the IC50 in [1] was 1.26 nM.

For the compound `Cc1ccc(-c2cc(Cl)ccc2OCc2ccccc2)n1-c1cc(N)cc(C(=O)O)c1`, in series [1], the IC50 was 3.98 nM.

Consider `Cc1ccc(-c2cc(Br)ccc2OCc2ccccc2)n1-c1cc(N)cc(C(=O)O)c1`, for which the IC50 in series [1] is 3.16 nM.

For the compound `Cc1ccc(-c2cc(Br)ccc2OCc2ccc(F)cc2F)n1-c1cc(Cl)cc(C(=O)O)c1`, the IC50 in series [1] was 3.98 nM.

For `Cc1ccc(-c2cc(Cl)ccc2OCc2ccc(F)cc2F)n1-c1cc(Cl)cc(C(=O)O)c1`, in series [1], the IC50 is 3.98 nM.

For the compound `Cc1ccc(-c2cc(Cl)ccc2OCc2ccc(F)cc2)n1-c1cc(C(=O)O)ccc1Cl`, in series [1], the IC50 was 316 nM.

Turning to `Cc1ccc(-c2cc(Cl)ccc2OCc2ccc(F)cc2)n1-c1cc(NS(C)(=O)=O)cc(C(=O)O)c1`, the IC50 in series [1] was 1.58 nM.

In the case of `Cc1ccc(-c2cc(C(F)(F)F)ccc2OCc2ccc(F)cc2)n1-c1cc(C(=O)O)cc(N2CCCS2(=O)=O)c1`, the IC50 in series [1] is 7.94 nM.

Take `Cc1ccc(-c2cc(Br)ccc2OCc2ccc(F)cc2F)n1-c1cc(C(=O)O)cc(N2CCCC2=O)c1`: in [1], the IC50 was 2 nM.

In the case of `CCOc1ccc(C(=O)O)cc1-n1c(C)ccc1-c1cc(Cl)ccc1OCc1ccccc1`, in series [1], the IC50 is 126 nM.

Consider `Cc1ccc(-c2cc(C(F)(F)F)ccc2OCc2ccccc2)n1-c1cc(C(=O)O)ccc1F`, for which the IC50 in series [1] is 6.31 nM.

With `COC(=O)Nc1cc(C(=O)O)cc(-n2c(C)ccc2-c2cc(Cl)ccc2OCc2ccccc2)c1`, in series [1], the IC50 is 5.01 nM.

With `Cc1ccc(-c2cc(Cl)ccc2OCc2ccc(F)cc2F)n1-c1cc(C(=O)O)ccc1Cl`, the IC50 in series [1] is 158 nM.

In the case of `Cc1ccc(-c2cc(Br)ccc2OCc2ccc(F)cc2)n1-c1cc(C(=O)O)ccc1F`, the IC50 in [1] was 6.31 nM. The same compound yielded an AUC in the series with Rattus norvegicus [2] of 6 kg·min/L. Also, the Tmax in series [3] was found to be 30 min. This compound also yielded a Cmax in [4] of 230 nM.

As for `CC(=O)Nc1cc(C(=O)O)cc(-n2c(C)ccc2-c2cc(Br)ccc2OCc2ccccc2)c1`, the IC50 in [1] is 1.26 nM.

For `CC(=O)Nc1cc(C(=O)O)cc(-n2c(C)ccc2-c2cc(F)ccc2OCc2ccc(F)cc2)c1`, in series [1], the IC50 was 3.98 nM. In the series on Rattus norvegicus [2], this compound displayed an AUC of 60 kg·min/L. In addition, the Tmax in [3] was 30 min. Besides, the highest level in series [4] (Cmax) was 2950 nM. Moreover, in the series on Rattus norvegicus [5], the Activity is 55%.

As to `CC(=O)Nc1cc(C(=O)O)cc(-n2c(C)ccc2-c2cc(Br)ccc2OCc2ccc(F)cc2F)c1`, the IC50 was 0.398 nM in series [1]; at least 18000 nM against Cytochrome P450 1A2; at least 18000 nM on Cytochrome P450 2C9; at least 18000 nM at Cytochrome P450 2C19; 158 nM in series [7]; at least 18000 nM against Cytochrome P450 2D6. Moreover, the results for the IC50 on Cytochrome P450 3A4 and against Thromboxane A2 receptor were at least 18000 nM and 2.51 nM, respectively. The compound also gave an AUC in the series with Rattus norvegicus [2] of 21 kg·min/L. Further, in [3], the Tmax turned out to be 30 min. The same compound had a Cmax in series [4] of 1410 nM. The Activity with Rattus norvegicus [5] came to 72%. In the series listed under Rattus norvegicus [6], the ED50 is 1.1 mg/kg. Also, the Ki in series [8] was 0.1 nM; in series [9], 501 nM. Moreover, the pKb in series [10] was 9.

For `Cc1ccc(-c2cc(Cl)ccc2OCc2ccc(F)cc2F)n1-c1cc(C(=O)O)ccc1F`, the IC50 in series [1] was 6.31 nM. The AUC in the series on Rattus norvegicus [2] stood at 4 kg·min/L. Moreover, in series [3], the Tmax worked out at 30 min. The same compound yielded a Cmax in [4] of 230 nM.

Turning to `CC(=O)Nc1cc(C(=O)O)cc(-n2c(C)ccc2-c2cc(I)ccc2OCc2ccc(F)cc2F)c1`, in [1], the IC50 is 1.58 nM.

In the case of `Cc1ccc(-c2cc(Cl)ccc2OCc2ccccc2)n1-c1cc(Br)cc(C(=O)O)c1`, in series [1], the IC50 is 5.01 nM. The AUC in the series on Rattus norvegicus [2] is 6 kg·min/L. For the same compound, in series [3], the Tmax is 30 min. In addition, the highest level in series [4] (Cmax) was 310 nM.

For the compound `CC(=O)N(C)c1cc(C(=O)O)cc(-n2c(C)ccc2-c2cc(Br)ccc2OCc2ccc(F)cc2F)c1`, the IC50 in [1] was 1.26 nM.

Take `Cc1ccc(-c2cc(Br)ccc2OCc2ccc(F)cc2F)n1-c1cc(N)cc(C(=O)O)c1`: the IC50 in series [1] is 0.501 nM. In the series on Rattus norvegicus [2], this compound displayed an AUC of under 1 kg·min/L. Further, the Tmax in [3] came out at 30 min. In series [4], this compound had a Cmax of 50 nM.

On to `Cc1ccc(-c2cc(Cl)ccc2OCc2ccccc2)n1-c1cc(C(=O)O)cc(N2CCCS2(=O)=O)c1`, for which, in series [1], the IC50 is 5.01 nM.

As for `Cc1ccc(-c2cc(Br)ccc2OCc2ccc(F)cc2F)n1-c1cc(C(=O)O)cc(C(F)(F)F)c1`, the IC50 in series [1] is 12.6 nM.

In the case of `COc1ccc(C(=O)O)cc1-n1c(C)ccc1-c1cc(Cl)ccc1OCc1ccccc1`, in series [1], the IC50 is 251 nM.

Consider `CC(=O)Nc1cc(C(=O)O)cc(-n2c(C)ccc2-c2cc(Cl)ccc2OCc2ccc(F)cc2)c1`, for which the 50% inhibitory concentration (IC50) in [1] is 2.51 nM. In the series on Rattus norvegicus [2], this compound showed an AUC of 20 kg·min/L. In addition, the Tmax in [3] stood at 30 min. The highest level in series [4] (Cmax) was 2080 nM. Further, in the series on Rattus norvegicus [5], the Activity was found to be 94%.

As for `CC(=O)Nc1cc(C(=O)O)cc(-n2c(C)ccc2-c2cc(Br)ccc2OCc2ccc(F)cc2)c1`, the IC50 in series [1] was 0.794 nM.

As to `CC(=O)Nc1cc(C(=O)O)cc(-n2c(C)ccc2-c2cc(C(F)(F)F)ccc2OCc2ccccc2)c1`, the IC50 in [1] was 1.26 nM. Besides, in [3], the Tmax is 42 min. The highest level in series [4] (Cmax) was 20 nM.
